The record followed here is the OligoGym collection.

The series addresses UBE3A-ATS. As to the kind of experiment: mouse, dose not given. The note with it: ASO.

HELM strings list units from the 5' end as sugar, base in round brackets, then linkage (d deoxyribose, r ribose, m 2'-O-methyl, p phosphodiester). Strings are as the collection lists them; they lack the last nucleoside at the 3' end of the tested compound. [moe] = 2'-O-(2-methoxyethyl) (MOE); [sp] = phosphorothioate linkage; [m5C] = 5-methylcytosine

With “RNA1{[moe](G)[sp].[moe](T)p.[moe](G)p.[moe]([m5C])p.[moe](A)p.d(T)[sp].d(A)[sp].d([m5C])[sp].d([m5C])[sp].d([m5C])[sp].d(A)[sp].d(G)[sp].d(G)[sp].d(G)[sp].d(T)[sp].[moe](A)p.[moe](G)p.[moe](G)[sp].[moe](A)}$$$$ (last 3' nucleoside missing)”, the 3 h FOB score is 1.2 score 0-7.

“RNA1{[moe](G)[sp].[moe](T)p.[moe](G)p.[moe]([m5C])p.[moe]([m5C])p.d(T)[sp].d(T)[sp].d(T)[sp].d([m5C])[sp].d(T)[sp].d(A)[sp].d(T)[sp].d(T)[sp].d(T)[sp].d([m5C])[sp].[moe](A)p.[moe](G)p.[moe](A)[sp].[moe]([m5C])}$$$$ (last 3' nucleoside missing)” showed a 3 h FOB score of 0 score 0-7.

Take “RNA1{[moe](G)[sp].[moe](T)p.[moe](G)p.[moe]([m5C])p.d(A)[sp].d(T)[sp].d(A)[sp].d([m5C])[sp].d([m5C])[sp].d([m5C])[sp].d(A)[sp].d(G)[sp].d(G)[sp].d(G)[sp].[moe](T)p.[moe](A)p.[moe](G)p.[moe](G)[sp].[moe](A)}$$$$ (last 3' nucleoside missing)”: the 3 h FOB score worked out at 2 score 0-7.

“RNA1{[moe](G)[sp].[moe](T)p.[moe](T)p.[moe](A)p.[moe](G)p.d(G)[sp].d(T)[sp].d(T)[sp].d(A)[sp].d(G)[sp].d(T)[sp].d(G)[sp].d([m5C])[sp].d(A)[sp].d([m5C])[sp].[moe](A)p.[moe](G)p.[moe](A)[sp].[moe](T)}$$$$ (last 3' nucleoside missing)” returned a 3 h FOB score of 6 score 0-7.

With “RNA1{[moe](G)[sp].[moe](T)p.[moe](T)p.[moe](T)p.[moe](A)p.d(G)[sp].d(G)[sp].d(T)[sp].d([m5C])[sp].d(A)[sp].d(A)[sp].d([m5C])[sp].d([m5C])[sp].d(A)[sp].d(A)[sp].[moe](T)p.[moe](T)p.[moe](T)[sp].[moe](G)}$$$$ (last 3' nucleoside missing)”, the 3 h FOB score was 1 score 0-7.

As to “RNA1{[moe](G)[sp].[moe](T)p.[moe](T)p.[moe](T)p.[moe](A)p.d(T)[sp].d(A)[sp].d(G)[sp].d(G)[sp].d(G)[sp].d(T)[sp].d(G)[sp].d(G)[sp].d(T)[sp].d(T)[sp].[moe](G)p.[moe](G)p.[moe](T)[sp].[moe](T)}$$$$ (last 3' nucleoside missing)”, the 3 h FOB score was determined as 7 score 0-7.

On to “RNA1{[moe](G)[sp].[moe](T)p.[moe](T)p.[moe](T)p.[moe](T)p.[moe](T)p.d([m5C])[sp].d([m5C])[sp].d(A)[sp].d(T)[sp].d(T)[sp].d(T)[sp].d(T)[sp].d(T)[sp].d([m5C])[sp].d(T)[sp].[moe]([m5C])p.[moe](T)[sp].[moe](T)}$$$$ (last 3' nucleoside missing)”, for which the 3 h FOB score is 0 score 0-7.

“RNA1{[moe](G)[sp].[moe](T)p.[moe](T)p.[moe](T)p.[moe](T)p.d(T)[sp].d([m5C])[sp].d([m5C])[sp].d(A)[sp].d(T)[sp].d(T)[sp].d(T)[sp].d(T)[sp].d(T)[sp].d([m5C])[sp].[moe](T)p.[moe]([m5C])p.[moe](T)[sp].[moe](T)}$$$$ (last 3' nucleoside missing)” gave a 3 h FOB score of 0 score 0-7.

Substance “RNA1{[moe](G)[sp].[moe](T)p.[moe](T)p.[moe](T)p.[moe](T)p.d([m5C])[sp].d(G)[sp].d([m5C])[sp].d([m5C])[sp].d([m5C])[sp].d(G)[sp].d(T)[sp].d(T)[sp].d(A)[sp].d([m5C])[sp].[moe]([m5C])p.[moe](T)p.[moe]([m5C])[sp].[moe](A)}$$$$ (last 3' nucleoside missing)” had a 3 h FOB score of 5.3 score 0-7.

“RNA1{[moe](G)[sp].[moe](T)p.[moe](T)p.[moe](T)p.d(T)[sp].d(T)[sp].d([m5C])[sp].d([m5C])[sp].d(A)[sp].d(T)[sp].d(T)[sp].d(T)[sp].d(T)[sp].d(T)[sp].[moe]([m5C])p.[moe](T)p.[moe]([m5C])p.[moe](T)[sp].[moe](T)}$$$$ (last 3' nucleoside missing)” yielded a 3 h FOB score of 0 score 0-7.

On to “RNA1{[moe](G)[sp].[moe](T)p.[moe](T)p.[moe]([m5C])p.[moe](T)p.d(G)[sp].d(G)[sp].d(A)[sp].d(A)[sp].d(T)[sp].d([m5C])[sp].d(T)[sp].d(T)[sp].d(G)[sp].d(T)[sp].[moe](A)p.[moe](G)p.[moe](A)[sp].[moe](G)}$$$$ (last 3' nucleoside missing)”, for which the 3 h FOB score stood at 4 score 0-7.

Take “RNA1{[moe](G)[sp].[moe](T)p.[moe]([m5C])p.[moe](A)[sp].d(T)[sp].d([m5C])[sp].d(T)[sp].d([m5C])[sp].d(G)[sp].d(G)[sp].d(G)[sp].d(T)[sp].[moe](A)p.[moe](T)p.[moe](A)p.[moe](T)[sp].[moe](A)}$$$$ (last 3' nucleoside missing)”: the 3 h FOB score worked out at 4.3 score 0-7.

In the case of “RNA1{[moe](G)[sp].[moe](T)p.[moe]([m5C])p.[moe](A)p.[moe](A)p.d([m5C])[sp].d([m5C])[sp].d(A)[sp].d(A)[sp].d(T)[sp].d(T)[sp].d(T)[sp].d(G)[sp].d([m5C])[sp].d(T)[sp].[moe](A)p.[moe](T)p.[moe](T)[sp].[moe]([m5C])}$$$$ (last 3' nucleoside missing)”, the 3 h FOB score was 1 score 0-7.

Substance “RNA1{[moe](G)[sp].[moe](T)p.[moe]([m5C])p.[moe](A)p.[moe](G)p.d(A)[sp].d(T)[sp].d(T)[sp].d([m5C])[sp].d([m5C])[sp].d(T)[sp].d(A)[sp].d(A)[sp].d(A)[sp].d(T)[sp].[moe](A)p.[moe]([m5C])p.[moe](G)[sp].[moe]([m5C])}$$$$ (last 3' nucleoside missing)” came in with a 3 h FOB score of 0 score 0-7.

On to “RNA1{[moe](G)[sp].[moe](T)p.[moe]([m5C])p.[moe](A)p.[moe](G)p.d(A)[sp].d([m5C])[sp].d(T)[sp].d(T)[sp].d(A)[sp].d(T)[sp].d(T)[sp].d(G)[sp].d(A)[sp].d(G)[sp].[moe](G)p.[moe](A)p.[moe](T)[sp].[moe](G)}$$$$ (last 3' nucleoside missing)”, for which the 3 h FOB score turned out to be 4 score 0-7.

Regarding “RNA1{[moe](G)[sp].[moe](T)p.[moe]([m5C])p.[moe](A)p.[moe](T)[sp].d([m5C])[sp].d(T)[sp].d([m5C])[sp].d(G)[sp].d(G)[sp].d(G)[sp].d(T)[sp].d(A)[sp].[moe](T)p.[moe](A)p.[moe](T)[sp].[moe](A)}$$$$ (last 3' nucleoside missing)”, the 3 h FOB score is 4.3 score 0-7.

With “RNA1{[moe](G)[sp].[moe](T)p.[moe]([m5C])p.[moe](A)p.[moe](T)p.[moe]([m5C])[sp].d(T)[sp].d([m5C])[sp].d(G)[sp].d(G)[sp].d(G)[sp].d(T)[sp].d(A)[sp].d(T)[sp].[moe](A)p.[moe](T)[sp].[moe](A)}$$$$ (last 3' nucleoside missing)”, the 3 h FOB score was determined as 4.7 score 0-7.

Substance “RNA1{[moe](G)[sp].[moe](T)p.[moe]([m5C])p.[moe](A)p.[moe](T)p.[moe]([m5C])p.d(T)[sp].d([m5C])[sp].d(G)[sp].d(G)[sp].d(G)[sp].d(T)[sp].d(A)[sp].d(T)[sp].d(A)[sp].d(T)[sp].[moe](A)p.[moe](A)[sp].[moe](A)}$$$$ (last 3' nucleoside missing)” gave a 3 h FOB score of 4 score 0-7.
